The text below walks through data of US20190201721A1, “ORAL CARE PRODUCTS AND METHODS COMPRISING HYDROXYAPATITE BINDING PROTEINS” (BASF SE, priority 2015, published 2019).

One test addresses T1, human TRPM8 receptor (Homo sapiens, UniProt Q7Z2W7).
T1 construct: expressed in transfected cells; host or cells: HEK293-TRPM8 (transformed HEK cells, tetracycline-inducible expression)
Put plainly: Assay on TRPM8 activation (HEK293-TRPM8 cells, Ca2+-sensitive dye Fluo-4). In kind it is cell-based. The following applies: before and after incubation with saliva.

A short description of test [1]: Binding to and release from calcium phosphate discs (HA-discs) after saliva incubation. The following applies: read out by TRPM8 activation of the supernatant. On the procedure:
The hybrid molecules of example 4 (5 μM in Tris buffer pH 8) were incubated with calcium phosphate discs (HA-discs from Himed) at 37° C. for 1 hr. Unbound molecules were removed by washing 3-times with Tris buffer. The coated calcium phosphate discs were incubated with buffer as a control and in parallel with pooled human saliva (5 donors; 37° C., for 2 hrs). The supernatant was centrifuged and evaluated for cooling activity by specific activation of human cool receptor TRPM8.
The agonisation or antagonisation of the receptor was quantified by means of a Ca^2+-sensitive dye (e.g. FURA, Fluo-4, etc.). Agonists on their own bring about an increase in the Ca^2+-signal; antagonists in the presence of, for example, menthol bring about a reduction in the Ca^2+-signal (in each case detected by means of the Fluo-4 dye, which due to the Ca^2+ has other fluorescent properties). To begin with, in a manner known per se, in cell culture flasks a fresh culture of transformed HEK cells was prepared. […] Addition of the test samples in quantities of 50 μl/well and measurement of the change in fluorescence (e.g. in the FLIPR assay device, Molecular Devices or NovoStar, BMG) at 485 nm excitation, 520 nm emission, and evaluation of the effective strength of the various substances/concentrations and determination of the EC50 values. […]

A short description of test [2]: Binding assay of carboxyfluorescein-labeled peptides/proteins to hydroxyapatite powder. As to conditions: 2 μM N-terminal labeled peptide/protein, 10 mg hydroxyapatite powder, HBS-T buffer, 2 h, 37° C.; for bound peptide on HAP (evaluation class): triplicates. The method, then: i. Petide/Protein Labeling For binding studies 5(6)-carboxyfluorescein was conjugated to the N-terminus of the peptides/proteins by using the corresponding succinimidyl ester (Invitrogen, Darmstadt, Germany). The labeling reaction was performed according to the manufactures protocol (Invitrogen, Darmstadt, Germany). After conjugation, the labeled peptide/protein was purified either with a PD-10 desalting column for proteins larger than 5 kDa or a PD MidiTrap G-10 for smaller proteins (GE Healthcare, Buckinghamshire, UK) or for peptides by HPLC on RP18 column. ii. Peptide/Protein Binding For the binding experiments N-terminal labeled peptides/proteins were used in a final concentration of 2 μM. The binding was carried out in HBS-T buffer (150 mM NaCl, 50 mM HEPES pH 7.5, 0.1% Tween 20). The peptides/proteins were exposed to 10 mg hydroxyapatite powder (Fluke) for 2 h at 37° C. After five wash steps with HBS-T buffer the bound peptide/protein was visualized by fluorescence microscopy with the appropriate filters (excitation 475/50; emission 525/50). To quantify the binding, the fluorescence intensity of the solution before (Fi) and after (Ff) binding was measured with a Fluostar Galaxy (BMG, Ortenberg, Germany) and the amount of bound peptide/protein was estimated (cbound=[1−(Ff/Fi)]×c0). The peptide LIKHILHRL, which was described as a non-binding peptide to hydroxyapatite, was used as a negative control [Yarbrough D K, Hagerman E, Eckert R, He J, Choi H, Cao N, et al. Specific binding and mineralization of calcified surfaces by small peptides. Calcif Tissue Int 2010; 86(1):58-66.]. All binding experiments were carried out as triplicates. Evaluation: +: 30-50% bound peptide on HAP; ++: 50-100% bound peptide on HAP

For test [3] the following is noted: described by Yarbrough et al. 2010; used as negative control; cited from earlier work.

T1 sequence (Q7Z2W7 whole entry): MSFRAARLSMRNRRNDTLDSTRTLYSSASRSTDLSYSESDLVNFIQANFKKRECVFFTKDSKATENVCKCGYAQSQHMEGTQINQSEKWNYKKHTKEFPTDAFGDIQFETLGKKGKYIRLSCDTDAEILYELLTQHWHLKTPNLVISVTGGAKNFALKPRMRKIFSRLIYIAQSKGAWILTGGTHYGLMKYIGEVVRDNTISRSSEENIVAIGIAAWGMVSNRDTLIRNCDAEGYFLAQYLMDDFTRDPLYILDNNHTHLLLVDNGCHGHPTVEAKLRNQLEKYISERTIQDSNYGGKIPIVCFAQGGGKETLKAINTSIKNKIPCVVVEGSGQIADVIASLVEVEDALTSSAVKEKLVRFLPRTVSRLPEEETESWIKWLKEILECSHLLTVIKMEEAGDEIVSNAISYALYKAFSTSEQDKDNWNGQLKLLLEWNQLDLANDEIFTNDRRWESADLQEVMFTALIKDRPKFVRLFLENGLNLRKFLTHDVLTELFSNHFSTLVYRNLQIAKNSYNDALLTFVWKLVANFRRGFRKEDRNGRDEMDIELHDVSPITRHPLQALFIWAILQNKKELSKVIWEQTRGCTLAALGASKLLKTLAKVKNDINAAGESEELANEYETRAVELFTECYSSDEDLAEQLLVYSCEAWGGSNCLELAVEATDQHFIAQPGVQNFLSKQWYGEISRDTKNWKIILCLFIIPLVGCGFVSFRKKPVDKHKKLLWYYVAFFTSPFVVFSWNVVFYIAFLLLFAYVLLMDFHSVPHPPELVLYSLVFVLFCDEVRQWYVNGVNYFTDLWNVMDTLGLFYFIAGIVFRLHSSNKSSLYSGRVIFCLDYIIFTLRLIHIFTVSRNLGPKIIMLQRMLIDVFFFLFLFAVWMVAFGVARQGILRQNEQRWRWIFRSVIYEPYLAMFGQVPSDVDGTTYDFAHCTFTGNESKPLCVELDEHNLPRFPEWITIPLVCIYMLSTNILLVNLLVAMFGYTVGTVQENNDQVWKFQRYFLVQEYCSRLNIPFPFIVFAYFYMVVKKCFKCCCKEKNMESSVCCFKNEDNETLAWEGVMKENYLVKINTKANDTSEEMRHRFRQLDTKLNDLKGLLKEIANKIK
Experimental for human TRPM8 receptor: The HABP peptide—cooling compound-hybrid molecules of example 4 (1 μM in Tris buffer pH 8) were incubated with pooled human saliva (5 donors) 1:1 or as reference 1:1 in Tris buffer pH 8; 37° C., for 2 hrs at 37° C. Samples were frozen until evaluation in a cell based assay for activation of the human TRPM8 receptor.
The agonisation or antagonisation of the receptor was quantified by means of a Ca^2+-sensitive dye (e.g. FURA, Fluo-4, etc.). […] To begin with, in a manner known per se, in cell culture flasks a fresh culture of transformed HEK cells was prepared. […] Addition of the test samples in quantities of 50 μl/well and measurement of the change in fluorescence (e.g. in the FLIPR assay device, Molecular Devices or NovoStar, BMG) at 485 nm excitation, 520 nm emission, and evaluation of the effective strength of the various substances/concentrations and determination of the EC50 values.

Take `CC1CCC(C(C)C)C(O)C1` (centres unmarked) [menthol]: at human TRPM8 receptor, the “bioactivity on the human cool receptor TRPM8” value is “bioactive”. The “bound on hydroxyapatite / released after incubation with human saliva” value in test [1] is given as “nothing is bound on hydroxyapatite”. Take EHITTSN [SEQ ID NO: 9]: in test [2], the “bound peptide on HAP (evaluation class)” value is “+ (+: 30-50% bound peptide on HAP)”.

On to GKVQAQS [SEQ ID NO: 5], for which, in test [2], the “bound peptide on HAP (evaluation class)” value is recorded as “+ (+: 30-50% bound peptide on HAP)”.

On to GSPATAA [SEQ ID NO: 4], for which, in test [2], the “bound peptide on HAP (evaluation class)” value was “+ (+: 30-50% bound peptide on HAP)”. Still for that read-out and setting: for HPPLHHA [SEQ ID NO: 2] the value was “+ (+: 30-50% bound peptide on HAP)”.

With IDDYTRA [SEQ ID NO: 1], in test [2], the “bound peptide on HAP (evaluation class)” value is given as “++ (++: 50-100% bound peptide on HAP)”. The same measure, in the same setting: for IPITNLR [SEQ ID NO: 11] the value was “+ (+: 30-50% bound peptide on HAP)”; for IPTLPSS [SEQ ID NO: 7], “++ (++: 50-100% bound peptide on HAP)”. As to LIKHILHRL, the “binding to hydroxyapatite as described in literature” value in test [3] is reported as “non-binding”. For the molecule MQTVEVT [SEQ ID NO: 14], in test [2], the “bound peptide on HAP (evaluation class)” value was “+ (+: 30-50% bound peptide on HAP)”. Regarding NERALTL [SEQ ID NO: 13], the “bound peptide on HAP (evaluation class)” value in test [2] is “+ (+: 30-50% bound peptide on HAP)”. The same measure, in the same setting: as for RILITIP [SEQ ID NO: 10], the entry is “+ (+: 30-50% bound peptide on HAP)”.

Regarding SPSTHWK [SEQ ID NO: 3], the “bound peptide on HAP (evaluation class)” value in test [2] is recorded as “+ (+: 30-50% bound peptide on HAP)”. Same read-out and setting: for SWGTQTD [SEQ ID NO: 15] the value was “+ (+: 30-50% bound peptide on HAP)”; for TLPASSV [SEQ ID NO: 16], “++ (++: 50-100% bound peptide on HAP)”; for TTSTRHI [SEQ ID NO: 12], “+ (+: 30-50% bound peptide on HAP)”.

For the molecule YPVTPSI [SEQ ID NO: 6], in test [2], the “bound peptide on HAP (evaluation class)” value was “+ (+: 30-50% bound peptide on HAP)”. As to YQGASEN [SEQ ID NO: 8], the “bound peptide on HAP (evaluation class)” value in test [2] is “++ (++: 50-100% bound peptide on HAP)”.

B1: AFP4-His6 (protein)
chain: MRFIVSLLAFTAAATATALPASAAKNAKLATSAAFAKQAEGTTCNVGSIACCNSPAETNNDSLLSGLLGAGLLNGLSGNTGSACAKASLIDQLGLLALVDHTEEGPVCKNIVACCPEGTTNCVAVDNAGAGTKAE
modifications: His6 tag
With B1, in test [2], the “bound peptide on HAP” value is reported as “(35%)” and the “bound peptide on HAP (evaluation class)” value is recorded as “+ (+: 30-50% bound peptide on HAP)”.

B2: IPTLPSS-GGG-AFP4-His6 (protein)
chain: MKFSIAAAVVAFAASVAALPPAHDSQFAGNGVGNKGNSNVKFPVPENVTVKQASDKCGDQAQLSCCNKATYAGDTTTVDEGLLSGALSGLIGAGSGAEGLGLFDQCSKLDVAVLIGIQDLVNQKCKQNIACCQNSPSSADGNLIGVGLPCVALGSIL
notes: fusion of HABP peptide IPTLPSS via GGG spacer to antifreeze protein AFP4-His6
B2: in test [2], the “bound peptide on HAP” value is on record as “(60%)” and the “bound peptide on HAP (evaluation class)” value is “++ (++: 50-100% bound peptide on HAP)”.
